Results taken from ChEMBL document CHEMBL1201862, “PubChem BioAssay data set” (2004).
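Step 1: Grow cells in 96-well plates. Step 2: Expose to compound for 48 hours at 5 concentrations. Step 3: Interpolate endpoints linearly; if unreached, use highest concentration. GI50 = concentration required for 50% inhibition of growth.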 Calls of active or inactive are those of the source. No stated cut-off is given here; in the data, active = GI50 up to about 1.1 µM and inactive = higher.

Legend:
Test in all cases: DTP human tumour cell line panel, 48 h
DMS-273 = system: DMS-273
RXF 631 = system: RXF 631
DLD-1 = system: DLD-1
HOP-18 = system: HOP-18
SNB-78 = system: SNB-78
DMS-114 = system: DMS-114
M19-MEL = system: M19-MEL
KM-20L2 = system: KM-20L2
XF498 = system: XF498

Measured: GI50

COc1ccc(C2NC(c3ccc(OC)cc3)C(C)C(=O)C2C)cc1 (configuration not stated)
inactive: DMS-273 > 100 µM | RXF 631 > 100 µM | DLD-1 > 100 µM | HOP-18 > 100 µM | SNB-78 > 100 µM | DMS-114 64.4 µM | M19-MEL > 100 µM | KM-20L2 > 100 µM

COc1ccc(NC(=O)CC/C(CC(=O)c2ccco2)=N/Nc2ccc([N+](=O)[O-])cc2[N+](=O)[O-])cc1
inactive: DMS-273 57.7 µM | XF498 22.8 µM | RXF 631 38.8 µM | HOP-18 26.2 µM | SNB-78 > 100 µM | DMS-114 23.6 µM | M19-MEL 58.1 µM | KM-20L2 > 100 µM

CCn1cc(/C=C/C(C)c2cn(CC)c(=O)[nH]c2=O)c(=O)[nH]c1=O (configuration not stated)
inactive: DMS-273 > 100 µM | RXF 631 > 100 µM | DLD-1 > 100 µM | HOP-18 > 100 µM | DMS-114 > 100 µM | M19-MEL > 100 µM | KM-20L2 > 100 µM

O=C(NCCOCCO)c1ccc(O)cc1
inactive: DMS-273 > 100 µM | XF498 55 µM | DLD-1 > 100 µM | HOP-18 > 100 µM | DMS-114 > 100 µM | M19-MEL > 100 µM | KM-20L2 > 100 µM

NC(=O)Nc1c([N+](=O)[O-])cc(C(F)(F)F)cc1[N+](=O)[O-]
inactive: DMS-273 > 100 µM | XF498 53.6 µM | RXF 631 65.9 µM | SNB-78 > 100 µM | KM-20L2 29.2 µM

CC1(C)CCC(Sc2ccccc2)O1 (configuration not stated)
inactive: DMS-273 > 100 µM | XF498 > 100 µM | DLD-1 > 100 µM | SNB-78 > 100 µM | DMS-114 > 100 µM | M19-MEL > 100 µM | KM-20L2 > 100 µM

COCCCCCC(=O)CP(=O)(OC)OC
inactive: DMS-273 > 100 µM | XF498 > 79.6 µM | DLD-1 > 100 µM | HOP-18 > 100 µM | SNB-78 > 100 µM | DMS-114 > 100 µM | M19-MEL > 100 µM | KM-20L2 > 100 µM

Cc1cc(C)nc(NS(=O)(=O)c2ccc(Nc3c4ccc(Cl)cc4nc4c(C(=O)Nc5ccc(S(N)(=O)=O)cc5)cccc34)cc2)n1
inactive: XF498 18.4 µM | RXF 631 18.2 µM | DLD-1 13.8 µM | SNB-78 49.9 µM | DMS-114 22.8 µM | M19-MEL 25.4 µM | KM-20L2 18.6 µM

O=C(CCc1nnc2s/c(=C\c3ccccc3)c(=O)n12)Nc1cc(Cl)ccc1Cl
inactive: DMS-273 > 100 µM | XF498 > 100 µM | RXF 631 > 100 µM | DLD-1 > 100 µM | HOP-18 > 100 µM | SNB-78 > 100 µM | DMS-114 > 100 µM | M19-MEL > 100 µM | KM-20L2 > 100 µM

O=C1OC(/C=C/c2ccccc2)C(=O)C1=O (configuration not stated)
inactive: DMS-273 > 100 µM | XF498 > 100 µM | DLD-1 > 100 µM | HOP-18 23.8 µM | M19-MEL > 100 µM | KM-20L2 > 100 µM

CN(C)c1ccc(/C=c2\sc3nc4ccccc4n3c2=O)cc1
inactive: DMS-273 > 100 µM | XF498 > 100 µM | RXF 631 > 100 µM | DLD-1 > 100 µM | HOP-18 > 100 µM | SNB-78 > 100 µM | DMS-114 > 100 µM | M19-MEL > 100 µM | KM-20L2 > 100 µM

CCCCCCCCCCCCCCCCOC(=O)C(C(=O)OCCCCCCCCCCCCCCCC)[N+](C)(C)CCOC(C)=O
inactive: DMS-273 9.2 µM | RXF 631 12.5 µM | DLD-1 14.2 µM | HOP-18 16.7 µM | SNB-78 19.9 µM | DMS-114 17.9 µM | M19-MEL 13.9 µM | KM-20L2 18.6 µM

C=CCN(N=O)C(=O)ON1C(=O)CCC1=O
inactive: DMS-273 > 100 µM | RXF 631 > 100 µM | DLD-1 > 100 µM | HOP-18 > 100 µM | SNB-78 > 100 µM | DMS-114 > 100 µM | M19-MEL > 100 µM | KM-20L2 > 100 µM

CCC(C)c1cccc(C)c1NC(=O)C(=O)Cc1nc2ccccc2s1 (configuration not stated)
inactive: DMS-273 > 100 µM | XF498 > 100 µM | DLD-1 > 100 µM | HOP-18 > 100 µM | SNB-78 > 100 µM | DMS-114 > 100 µM | M19-MEL > 100 µM | KM-20L2 > 100 µM

C/C=C1/C=CC2c3[nH]c4ccccc4c3CCN2C1 (configuration not stated)
inactive: DMS-273 > 400 µM | XF498 > 400 µM | RXF 631 > 400 µM | DLD-1 > 400 µM | HOP-18 7.11 µM | DMS-114 296 µM | M19-MEL > 400 µM | KM-20L2 > 400 µM

Cn1nc(-c2ccccc2)c2c(/C=C/c3ccc(F)cc3)onc2c1=O
inactive: DMS-273 > 100 µM | XF498 14.8 µM | DLD-1 > 100 µM | HOP-18 11.3 µM | M19-MEL > 100 µM | KM-20L2 > 100 µM

Cn1c(=O)c(C(c2ccc([N+](=O)[O-])cc2)c2c(O)c3ccccc3n(C)c2=O)cc2ccccc21 (configuration not stated)
inactive: DMS-273 37.2 µM | XF498 55.3 µM | RXF 631 49.9 µM | DLD-1 36.8 µM | HOP-18 42.5 µM | SNB-78 43.2 µM | DMS-114 56.2 µM | M19-MEL 35.5 µM | KM-20L2 45 µM

CCCCC1(OC(=O)CCC(=O)O)CCC2(CCC(C)C(C/C=C(C)/C=C/C(O)C(C)/C=C/C(=O)O)O2)OC1CC/C(C)=C/C(=O)O (configuration not stated)
inactive: DMS-273 5.94 µM | XF498 2.03 µM | RXF 631 1.93 µM | DLD-1 3.25 µM | HOP-18 4.58 µM | SNB-78 2.55 µM | DMS-114 2.45 µM | M19-MEL 2.84 µM | KM-20L2 10.9 µM

Cc1cc(Cl)cc2c1NC(=O)C2=O.O=C(c1ccccc1)C(F)(F)F
inactive: DMS-273 50.7 µM | XF498 30.1 µM | DLD-1 60.1 µM | HOP-18 59.7 µM | SNB-78 24.4 µM | DMS-114 30.7 µM | M19-MEL 13.3 µM | KM-20L2 76 µM

CC(C)=CCC/C(C)=C/CC/C(C)=C/CC/C=C(\C)CC/C=C(\C)CCC1SC1(C)C (configuration not stated)
inactive: DMS-273 > 100 µM | DLD-1 > 100 µM | HOP-18 > 100 µM | SNB-78 > 100 µM | DMS-114 75.7 µM | M19-MEL > 100 µM | KM-20L2 > 100 µM

N#CC12CC3(CCC1CCC1(C2)OCCO1)OCCO3 (configuration not stated)
inactive: DMS-273 > 100 µM | XF498 > 100 µM | RXF 631 > 100 µM | DLD-1 > 100 µM | HOP-18 > 100 µM | SNB-78 > 100 µM | DMS-114 > 100 µM | M19-MEL > 100 µM | KM-20L2 > 100 µM

COC(=O)[C@@H]1C(=O)O[C@@H](c2ccc3c(c2)OCO3)[C@@H]1C(=O)OC.COC(=O)[C@H]1C(=O)O[C@@H](c2ccc3c(c2)OCO3)[C@@H]1C(=O)OC
inactive: DMS-273 > 100 µM | RXF 631 > 100 µM | DLD-1 > 100 µM | SNB-78 > 100 µM | DMS-114 > 100 µM | M19-MEL > 100 µM | KM-20L2 > 100 µM

Nc1ccccc1N
inactive: DMS-273 > 100 µM | DLD-1 > 100 µM | HOP-18 > 100 µM | M19-MEL > 100 µM
